According to US20060147456A1, “Induction of apoptosis in toll-like receptor expressing tumor cells” (priority 2004, published 2006):

Assays:
[1] = system: Cama-1, SW527, BT483 and MCF-7; test: Cell recovery by crystal violet staining, four breast tumor cell lines together; format: cell-based, human; settings: 72 h; 5 μg/ml PGN, 50 μg/ml Poly IC or 10 μg/ml LPS; average of the four cell lines
Procedure: (§1) Cell recovery after treatment with TLR ligands was measured by crystal violet staining (Sigma-Aldrich). Cells were plated at 10^4 cells/well in 96 well plates. After 72 hours of culture either with or without TLR ligand, the cells were washed with PBS, fixed in 6% formaldehyde (Sigma-Aldrich) for 20 minutes, washed twice, and then stained with 0.1% crystal violet for 10 minutes. After washes and incubation in 1% SDS for 1 hour, the absorbance was read at 605 nm on a Vmax plate reader (Molecular Devices, Sunnyvale, Calif.). Annexin V staining was performed with an annexin-FITC apoptosis detection kit (BD Pharmingen, San Diego, Calif.) according to the manufacturer's instructions. Sub-diploid cells were detected by staining with 3 μg/mL propidium iodide (PI) (Molecular probes, Eugene, Oreg.), after overnight permeabilization in 70% ethanol. Fluorescence was analyzed by flow cytometry on a FACScalibur (Becton Dickinson, Mountain View, Calif.) equipped with a doublet-discrimination module and using Celiquest Pro software (Becton Dickinson).
(§2) Four human breast tumor cell lines, Cama-1, SW527, BT483 and MCF-7, were analyzed for cell death in response to Poly IC. Cells were cultured for 72 hours with 5 μg/ml PGN, 50 μg/ml Poly IC or 10 μg/ml LPS. Control cells were cultured with PBS. Cytotoxicity was assessed by crystal violet staining and expressed as a percent of control.
Furthermore, additional TLR ligands were tested to determine any possible effects on cellular toxicity. The ligands tested were PGN, LPS, Flagellin, R848 and CpG. Cells were cultured for 72 hours with 5 μg/ml PGN, 10 μg/ml LPS, 50 ng/ml flagellin, 6 μg/ml R848, 10 μg/ml CpG ODNs, or with PBS as control. Cell recovery was assessed by crystal violet staining and expressed as a percent of control.

[2] = system: Cama-1; test: Cell recovery by crystal violet staining; format: cell-based, human; settings: 50 μg/ml Poly IC, 72 h
Procedure: as §1, §2

[3] = system: BT483; test: Cell recovery by crystal violet staining; format: cell-based, human; settings: 50 μg/ml Poly IC, 72 h
Procedure: as §1, §2

[4] = system: SW527; test: Cell recovery by crystal violet staining; format: cell-based, human; settings: 50 μg/ml Poly IC, 72 h
Procedure: as §1, §2

[5] = system: MCF-7; test: Cell recovery by crystal violet staining; format: cell-based, human; settings: 50 μg/ml Poly IC, 72 h
Procedure: as §1, §2

[6] = system: IFN-β; test: Western Blot of Cama-1 cell lysate for IFN-β; format: cell-based, human; settings: 5 μg/ml Poly IC, 0 to 24 hours
Procedure: (§3) Cama-1 cells were lysed in 1% Nonidet-P40-containing buffer. 20 μg total protein was loaded per lane on SDS-Polyacrylamide gels (Invitrogen). Western Blots (WB) were performed with standard techniques using the antibodies described above. Anti IRAK-4 monoclonal antibodies were generated in the laboratory according to the protocol described in Fossiez et al., “T cell interleukin-17 induces stromal cells to produce proinflammatory and hematopoietic cytokines”, J. Exp. Med., vol. 183(6), pp. 2593-2603 (1996).
The involvement of type 1 interferon in TLR3 mediated apoptosis was evaluated. Cama-1 cells were incubated with 5 μg/ml Poly IC for either 0 hours, 1 hour, 6 hours, 18 hours or 24 hours. The presence of IFN-β, phosphorylated Stat1 (tyrosine 701) (P-Stat-1) and total Stat-1 in the cell lysate were analyzed by Western Blot.

[7] = system: colon cancer cell line LS174T; test: BrdU incorporation and propidium iodide DNA content by FACS; format: cell-based
Procedure: Two cell lines, the colon cancer cell line LS174T and the breast cancer cell line Cama-1, were analyzed for death and cell cycle changes. Cells were cultured for 48 hours in either the presence or absence of Poly IC (5 μg/ml). Following a 30-minute pulse with 1 μg/ml bromodeoxyuridine (BrdU), the cells were fixed overnight at 4° C. in 70% ethanol before staining with FITC-coupled anti-BrdU monoclonal antibody and 3 μg/ml propidium iodide. Cell death and the cell cycle were analyzed by flow cytometry (FACS). BrdU incorporation is a measure of proliferation, whereas propidium iodide staining allows the quantification of DNA content, in particular the subdiploid cell population undergoing apoptosis.

[8] = system: PARP; test: Western Blot for cleavage of PARP in Cama-1 cells; format: cell-based, human; settings: Poly IC treatment
Procedure: as §3
We next addressed the role of caspases in apoptosis. Cama-1 cells were pre-incubated with 25 μM of the general caspase inhibitor z-VAD-fmk or DMSO for 1 hour before culture for 24 hours with or without 5 μg/ml Poly IC or 25 ng/ml TNF-α (used as a positive control). Apoptosis was measured by annexin V staining and expressed as a percentage of apoptotic cell in the culture.
In another experiment, lysates from cells obtained above were analyzed by Western Blot for cleavage of PARP, Caspase 3 and Caspase 8.

[9] = system: SKBr3 cells; test: Apoptosis analysis of SKBr3 cells; format: cell-based; settings: for percentage of SKBr3 cells induced to apoptosis by Poly IC: summary statement
Procedure: We tried to further investigate whether any synergy exists between TLR3 ligands and type I IFN. The primary breast carcinoma cells SKBr3 were plated in 6 well plates at 3×10^5 cells per well. After overnight adherence, siRNA transfections were performed for 5 hours in OptiMEM medium (Life technologies) containing 3μg/mL lipofectamine 2000 (Invivogen) and 100 nM siRNA. Cells were transfected with either MOCK (water), TLR3 siRNA or PKR siRNA. Cells were then washed and cultured for 72 hours in complete medium before 24 hour treatment with 50 μg/ml Poly IC and apoptosis analysis.
In another experiment, we tried to determine whether IFN and Poly IC acted synergistically to induce apoptosis. SKBr3 cells were untreated or pre-treated with either 10 U/ml or 100 U/ml of a low dose mixture of IFN-α or IFN-β. Poly IC was administered in the following doses: 0, 0.5, 5 and 50 μg/ml for 48 hours.

polyinosinic-polycytidylic acid [Poly IC]
cell recovery, percent of control, on average [1]: 67.5% | cell recovery, percent of control [2]: 33% | cell recovery, percent of control [3]: 67% | cell recovery, percent of control [4]: 75% | cell recovery, percent of control [5]: 100% | IFN-β production [6]: strongly induced | percentage of cells with subdiploid DNA content ([7]; 48 h with 5 μg/ml Poly IC (3% before treatment)): 23% | percentage of cells that incorporated BrdU ([7]; 48 h with 5 μg/ml Poly IC (27% before treatment)): 9% | cleavage of PARP [8]: occurred | percentage of apoptotic cells ([9]; SKBr3, 0.5 μg/ml Poly IC 48 h, no IFN pre-treatment): 15% | percentage of apoptotic cells ([9]; SKBr3, 0.5 μg/ml Poly IC 48 h, pre-treated IFN-α/β 10 U/ml): 45% | percentage of apoptotic cells ([9]; SKBr3, 0.5 μg/ml Poly IC 48 h, pre-treated IFN-α/β 100 U/ml): 55% | percentage of apoptotic cells ([9]; SKBr3, 5 μg/ml Poly IC 48 h, no IFN pre-treatment): 20% | percentage of apoptotic cells ([9]; SKBr3, 5 μg/ml Poly IC 48 h, pre-treated IFN-α/β 10 U/ml): 55% | percentage of apoptotic cells ([9]; SKBr3, 5 μg/ml Poly IC 48 h, pre-treated IFN-α/β 100 U/ml): 60% | percentage of apoptotic cells ([9]; SKBr3, 50 μg/ml Poly IC 48 h, no IFN pre-treatment): 20% | percentage of apoptotic cells ([9]; SKBr3, 50 μg/ml Poly IC 48 h, pre-treated IFN-α/β 10 U/ml): 55% | percentage of apoptotic cells ([9]; SKBr3, 50 μg/ml Poly IC 48 h, pre-treated IFN-α/β 100 U/ml): 60% | Poly IC concentration at which cells become sensitive to apoptosis, IFN pre-treated versus non-pretreated cells ([9]; SKBr3, type I IFN pre-treatment): one hundred fold lower | percentage of apoptotic cells ([9]; SKBr3 MOCK group, 24 h, 50 μg/ml Poly IC, untreated 10%): 22% | percentage of apoptotic cells ([9]; SKBr3 PKR siRNA group, 24 h, 50 μg/ml Poly IC, untreated 12%): 22% | percentage of apoptotic cells ([9]; SKBr3 TLR3 siRNA group, 24 h, 50 μg/ml Poly IC, untreated 8%): 13% | percentage of SKBr3 cells induced to apoptosis by Poly IC ([9]; after type I IFN pre-treatment): 66% | percentage of SKBr3 cells induced to apoptosis by Poly IC ([9]; without type I IFN pre-treatment): 22%
